# Assay results from PMC10700596 (Nature Communications, 2023).
# pKi: −log10 of the molar value. “And” between values parts separate entries of the source, which are not always exact repeats. Equal entries are not always repeated. “Also recorded” adds a separate entry of the source. Where two headings read alike, the source gives them in different places.
# Assays:
# EP4R = target: T1, EP4R (Homo sapiens, UniProt P35408); assay: PRESTO-Tango β-arrestin2 recruitment assay; type: cell-based
# T1 construct: Tango fusion cassette (only 'tango' is printed); expressed in transfected cells; host or cells: HTLA cells (tTA-dependent luciferase reporter, β-arrestin2-TEV fusion)
# mice [1] = type: in vivo
# mice [2] = type: in vivo; remark: listed apart in the source
# in vivo = type: in vivo, mice
# [3] = male, CD-1, mouse, plasma, ip, 10 mg/kg, mice, IP 10 mg/kg, plasma, mean of 3 animals, read-out: Plasma concentration C (mean)
# [4] = male, CD-1, mouse, plasma, ip, 10 mg/kg, mice, IP 10 mg/kg, plasma, single animal, D=1, read-out: Final plasma concentration, individual sample
# [5] = male, CD-1, mouse, plasma, iv, 10 mg/kg, mice, IV 10 mg/kg, plasma, single animals, read-out: Plasma concentration, Final (individual mouse)
# [6] = male, CD-1, mouse, plasma, iv, 10 mg/kg, mice, IV 10 mg/kg, plasma, read-out: Plasma concentration C (mean)
# T1 sequence (P35408 whole entry, the tested form may be a part): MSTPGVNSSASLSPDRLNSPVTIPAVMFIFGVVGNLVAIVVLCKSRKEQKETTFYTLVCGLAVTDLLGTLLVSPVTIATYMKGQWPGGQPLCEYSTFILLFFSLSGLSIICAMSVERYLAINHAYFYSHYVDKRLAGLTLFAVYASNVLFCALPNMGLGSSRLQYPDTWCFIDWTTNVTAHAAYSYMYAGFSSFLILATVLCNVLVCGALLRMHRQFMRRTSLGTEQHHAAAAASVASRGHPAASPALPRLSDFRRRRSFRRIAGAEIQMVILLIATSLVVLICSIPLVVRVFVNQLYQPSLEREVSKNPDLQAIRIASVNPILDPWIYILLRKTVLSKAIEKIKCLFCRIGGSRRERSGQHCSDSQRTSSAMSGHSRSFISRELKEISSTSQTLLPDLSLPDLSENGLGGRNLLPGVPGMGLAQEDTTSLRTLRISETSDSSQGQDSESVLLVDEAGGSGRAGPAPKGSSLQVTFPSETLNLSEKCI
compound,measurement,setting,value
"O=C([O-])C1CCC2(CC1)CC(Nc1ncnc3[nH]c4c(F)cccc4c13)C2.[Na+] (stereo not shown) [Compound 77, [Na+].[O-]C(=O)C1CCC2(CC(C2)NC=3N=CN=C4NC=5C(F)=CC=CC5C34)CC1]",IC50,EP4R; PRESTO-Tango IC50 (nM),232 nM
same,pKi,"EP4R; calculated using the Cheng Prusoff equation, read-out: PRESTO-Tango Ki*",7.34
same,"PGE2-induced allodynia, mechanical threshold (von Frey)","mice [1]; 30 mg/kg IP, 30 min before 10 µg intraplantar PGE2, individual animals",121.3 and 118.3 and 44.9 and 101.1 and 46.9
same,effect on PGE2-induced mechanical hypersensitivity,"mice [1]; mouse, in vivo",dose-dependently prevented mechanical hypersensitivity; also recorded: dose-dependently reduces mechanical allodynia
same,effect on CFA-induced paw edema,mice [2]; 30 mg/kg i.p. daily on four consecutive days,significantly reduced the progression of CFA-induced inflammation; also recorded: significantly slowed the development of paw edema
same,reduction of paw thickness versus the control group,mice [2]; 30 mg/kg i.p. daily on four consecutive days after CFA,up to 20%
same,Thickness D1 %BL,"mice [2]; 77 30 mg/kg, CFA day 1, 1 h after dosing, % of CFA D1 thickness, individual mice 6-10 and Average, 30 mg/kg",92.0% and 93.2% and 87.6% and 98.7% and 95.8%
same,Thickness D1,"mice [2]; 77 30 mg/kg, CFA day 1, 1 h after dosing, individual mice 6-10 and Average, 30 mg/kg",3.58 and 3.3 and 3.4 and 3.89 and 3.68
same,Thickness D2 (1h) %BL,"mice [2]; 77 30 mg/kg, CFA day 2, 1 h, % of CFA D1 thickness, individual mice 6-10 and Average, 30 mg/kg",115.7% and 120.9% and 116.5% and 109.1% and 119.8%
same,Thickness D2 (1h),"mice [2]; 77 30 mg/kg, CFA day 2, 1 h, individual mice 6-10 and Average, 30 mg/kg",4.5 and 4.28 and 4.52 and 4.3 and 4.6
same,Thickness BL D2,"mice [2]; 77 30 mg/kg, CFA day 2 before that day's dose (vehicle head: CFA D2), individual mice 6-10 and Average, 30 mg/kg",4.81 and 4.39 and 4.69 and 4.16 and 4.59
same,Thickness BL D2 %,"mice [2]; 77 30 mg/kg, CFA day 2 before that day's dose, % of CFA D1 thickness, individual mice 6-10 and Average, 30 mg/kg",123.7% and 124.0% and 120.9% and 105.6% and 119.5%
same,Thickness D3 (1h) %,"mice [2]; 77 30 mg/kg, CFA day 3, 1 h, % of CFA D1 thickness, individual mice 6-10 and Average, 30 mg/kg",128.5% and 117.8% and 103.9% and 101.5% and 122.4%
same,Thickness D3 (1h),"mice [2]; 77 30 mg/kg, CFA day 3, 1 h, individual mice 6-10 and Average, 30 mg/kg",5 and 4.17 and 4.03 and 4 and 4.7
same,Thickness CFA D3 %,"mice [2]; 77 30 mg/kg, CFA day 3 before that day's dose, % of CFA D1 thickness, individual mice 6-10 and Average, 30 mg/kg",131.9% and 121.8% and 110.3% and 105.1% and 128.9%
same,Thickness CFA D3,"mice [2]; 77 30 mg/kg, CFA day 3 before that day's dose, individual mice 6-10 and Average, 30 mg/kg",5.13 and 4.31 and 4.28 and 4.14 and 4.95
same,Thickness D4 (1h) %,"mice [2]; 77 30 mg/kg, CFA day 4, 1 h, % of CFA D1 thickness, individual mice 6-10 and Average, 30 mg/kg",113.1% and 107.3% and 103.1% and 103.6% and 104.7%
same,Thickness D4 (1h),"mice [2]; 77 30 mg/kg, CFA day 4, 1 h, individual mice 6-10 and Average, 30 mg/kg",4.4 and 3.8 and 4 and 4.08 and 4.02
same,Thickness CFA D4 %,"mice [2]; 77 30 mg/kg, CFA day 4 before that day's dose, % of CFA D1 thickness, individual mice 6-10 and Average, 30 mg/kg",118.3% and 110.2% and 107.5% and 106.1% and 109.1%
same,Thickness CFA D4,"mice [2]; 77 30 mg/kg, CFA day 4 before that day's dose, individual mice 6-10 and Average, 30 mg/kg",4.6 and 3.9 and 4.17 and 4.18 and 4.19
same,Thickness CFA D5 %,"mice [2]; 77 30 mg/kg, CFA day 5, % of CFA D1 thickness, individual mice 6-10 and Average, 30 mg/kg",100.0% and 107.3% and 97.4% and 90.6% and 104.2%
same,Thickness CFA D5,"mice [2]; 77 30 mg/kg, CFA day 5, individual mice 6-10 and Average, 30 mg/kg",3.89 and 3.8 and 3.78 and 3.57 and 4
same,Thickness CFA D7 %,"mice [2]; 77 30 mg/kg, CFA day 7, % of CFA D1 thickness, individual mice 6-10 and Average, 30 mg/kg",102.8% and 96.0% and 90.2% and 86.0% and 106.8%
same,Thickness CFA D7,"mice [2]; 77 30 mg/kg, CFA day 7, individual mice 6-10 and Average, 30 mg/kg",4 and 3.4 and 3.5 and 3.39 and 4.1
same,concentrations in blood compared to CJ-42794,"in vivo; 10 mg/kg i.p., two to four hours after injection",higher concentrations in blood two to four hours after injection
same,concentration at 5 min,in vivo; [3],2420 ng/mL
same,concentration at 5 min,in vivo; [4],2380 ng/mL
same,concentration at 15 min,in vivo; [3],7250 ng/mL
same,concentration at 15 min,in vivo; [4],6880 ng/mL
same,concentration at 30 min,in vivo; [3],6710 ng/mL
same,concentration at 30 min,in vivo; [4],8130 ng/mL
same,concentration at 60 min,in vivo; [3],9910 ng/mL
same,concentration at 60 min,in vivo; [4],10900 ng/mL
same,concentration at 120 min,in vivo; [3],6380 ng/mL
same,concentration at 240 min,"in vivo; male, CD-1, mouse, plasma, ip, 10 mg/kg, mice, IP 10 mg/kg, plasma, 240 min, mean of 3 animals, read-out: Plasma concentration C (mean)",3590 ng/mL
same,concentration at 360 min,in vivo; [3],1980 ng/mL
same,concentration at 360 min,in vivo; [4],1660 ng/mL
same,concentration at 480 min,in vivo; [3],753 ng/mL
same,concentration at 480 min,in vivo; [4],889 ng/mL
same,concentration at 1440 min,in vivo; [3],17 ng/mL
same,concentration at 1440 min,in vivo; [4],18.9 ng/mL
same,Cmax,"in vivo; male, CD-1, mouse, plasma, ip, 10 mg/kg i.p., mice",9910 ng/mL
same,AUC,"in vivo; male, CD-1, mouse, plasma, ip, 10 mg/kg i.p., mice, read-out: plasma AUC (converted)",39500 ng·h/mL
same,concentration at 5 min,in vivo; [5],24100 ng/mL
same,concentration at 5 min,in vivo; [6],26200 ng/mL
same,concentration at 15 min,in vivo; [5],14400 ng/mL
same,concentration at 15 min,in vivo; [6],17000 ng/mL
same,concentration at 30 min,in vivo; [5],10900 ng/mL
same,concentration at 30 min,in vivo; [6],12700 ng/mL
same,concentration at 60 min,in vivo; [5],11000 ng/mL
same,concentration at 60 min,in vivo; [6],10500 ng/mL
same,concentration at 120 min,in vivo; [5],4760 ng/mL
